According to patent publication US6660872B1, “Method of producing methoxyimino acetic amide” (Bayer Aktiengesellschaft, priority 1999, dated 2003):
Several values for one entry are separate records, joined by “and”; a condition that tells them apart may be missing. Equal values may be shown once.

Assay: determination of the logP-Values by HPLC according to EEC-Direktive 79/831 Annex V. A8
Type: physicochemical
Conditions: gradient method, acetonitrile/0,1% aqueous phosphoric acid; for chromatographic logP: HPLC (gradient, acetonitrile/0.1% aqueous phosphoric acid), read-out: log p
Protocol: The determination of the logP-Values was carried out for all examples according to the EEC-Direktive 79/831 Annex V. A8 by HPLC (gradient method, acetonitrile/0,1% aqueous phosphoric acid).

Structure (SMILES) | chromatographic logP | log p
CNC(=O)/C(=N\OC)c1ccccc1Oc1ncnc(Oc2cccc(Cl)c2C)c1F [XI-1, Z-isomer, N-methyl-Z-2-[2-(5-fluoro-2′-methyl-3′-chlorophenoxy-pyrimidin-4-yloxy)phenyl]-2-methoxyiminoacetamide] | 3.44 | 3.43
COC(=O)/C(=N\O)c1ccccc1O [methyl Z-2-(2-hydroxyphenyl)-2-hydroxyimino-acetate] | 1.68 | 1.70
CNC(=O)/C(=N/OC)c1ccccc1Oc1ncnc(F)c1F [N-methyl-E-2-[2-(5,6-difluoropyrimidin-4-yloxy)-phenyl]-2-methoxyiminoacetamide] | 1.95 | –
CNC(=O)/C(=N/OC)c1ccccc1Oc1ncnc(Oc2ccccc2Cl)c1F (single isomer, unassigned) [XI-2, E-isomer, N-methyl-E-2-[2-(5-fluoro-2′-chlorophenoxypyrimidin-4-yloxy)phenyl]-2-methoxyiminoacetamide] | – | 3.01
COC(=O)/C(=N/O)c1ccccc1O [methyl E-2-(2-hydroxyphenyl)-2-hydroxyimino-acetate] | 0.95 | –
CNC(=O)/C(=N/OC)c1ccccc1O [N-methyl-E-2-(2-hydroxyphenyl)-2-methoxyimino-acetamide] | 0.98 | –
CNC(=O)/C(=N/OC)c1ccccc1Oc1ncnc(Oc2cccc(Cl)c2C)c1F [XI-1, E-isomer, N-methyl-E-2-[2-(5-fluoro-2′-methyl-3′-chlorophenoxypyrimidin-4-yloxy)phenyl]-2-methoxyiminoacetamide] | 3.51 | 3.50
CNC(=O)/C(=N\OC)c1ccccc1O [N-methyl-Z-2-(2-hydroxyphenyl)-2-methoxyiminoacetamide] | 1.29 | –
CNC(=O)/C(=N\OC)c1ccccc1Oc1ncnc(F)c1F [N-methyl-Z-2-[2-(5,6-difluoro-pyrimidin-4-yloxy)phenyl]-2-methoxyiminoacetamide] | 1.87 | –
CNC(=O)/C(=N\OC)c1ccccc1Oc1ncnc(Oc2ccccc2Cl)c1F (single isomer, unassigned) [XI-2, Z-isomer, N-methyl-Z-2-[2-(5-fluoro-2′-chlorophenoxypyrimidin-4-yloxy)-phenyl]-2-methoxyiminoacetamide] | – | 2.95 and 2.94
COC(=O)C(=O)c1ccccc1O [methyl 2-hydroxyphenylglyoxylate] | 1.87 | –
O=C1Oc2ccccc2/C1=N\O [E-benzofuran-2,3-dione 3-oxime] | 1.55 | –
CO/N=C(\C(=O)OC)c1ccccc1O [methyl Z-2-(2-hydroxyphenyl)-2-methoxyimino-acetate] | 2.39 | 2.38 and 2.37
CO/N=C(/C(=O)OC)c1ccccc1O [methyl E-2-(2-hydroxyphenyl)-2-methoxyimino-acetate] | 1.48 | –
